Where two headings read alike, the source gives them in different places.

The nature of data set [1]: Transfer into each organ: carotenoid concentration in organs of mice (Test Example 1). In kind it is in vivo, ICR strain mice. To be noted: 50 mg/kg orally once daily for 10 days; for concentration at 10 days: ICR, mouse, po, after last administration, mean. An excerpt:
Adonixanthin was used as an asymmetric carotenoid, and astaxanthin was used as a symmetric carotenoid. As experimental animals, ICR strain mice were used. Fourteen (14) mice were used, and 4 mice each were assigned to the adonixanthin-administration group and the astaxanthin-administration group, and 6 mice were assigned to the control administration group. In grouping, each group was constituted so that the mean body weight in each group was as uniform as possible based on the body weight on the day before initiation of administration.
To each experimental group, each of adonixanthin, astaxanthin, and olive oil (product number 150-00276, manufactured by Wako Pure Chemical Industries, Ltd.) was orally administered. In the adonixanthin-administration group and the astaxanthin-administration group, adonixanthin and astaxanthin at a volume of 50 mg/kg body weight were orally administered once daily for 10 days (the day of initiation of administration of the dosing substances was defined as day 1) using a flexible stomach tube. In the control administration group, olive oil at a volume of 0.05 mL/kg body weight was orally administered once daily for 10 days using a flexible stomach tube.
During the administration period, the mice were fed ad libitum a pellet (CE-2, manufactured by CLEA Japan, Inc.) and tap water, and maintained on a 12-h light/dark cycle, at 23±3° C., with a relative humidity of 50±20%.
After blood collection after the last administration, the whole body was perfused with a heparinized lactated Ringer's solution under isoflurane anesthesia, followed by collection of the retina, the heart, the lung, the spleen, the liver, and the kidney. The collected organs were immediately frozen with liquid nitrogen, and were stored at −80° C.
Each of the concentration of adonixanthin in each organ collected from the adonixanthin-administration group (concentration relative to the weight of each organ) and the concentration of astaxanthin in each organ collected from the astaxanthin-administration group (concentration relative to the weight of each organ) was measured. Specifically, each organ was homogenized, and extraction was repeated with acetone until no color occurred. Then, filtration through a filter was performed to evaporate acetone, and diethyl ether:hexane (2:8, v/v) was added to the solution to extract a carotenoid. Furthermore, evaporation to dryness was performed, and the residue was dissolved in acetone:hexane (2:8, v/v) and subjected to HPLC. As the HPLC device, a Hitachi L-6000 intelligent pump and an L-4250 UV-VIS detector were used. The measurement wavelength was 450 nm, and a column of 5 μm Cosmosil 5SL-II (inner diameter of 250×4.6 mm) (manufactured by Nacalai Tesque, Inc.) was used. As the mobile phase, acetone:hexane (2:8, v/v) was used, and measurement was performed at a flow rate of 1.0 mL/min.
In HPLC, the concentration of astaxanthin was measured as a concentration of each of the cis isomer and the trans isomer.
Each of the concentration of adonixanthin in each organ collected from the adonixanthin-administration group and the concentration of astaxanthin in each organ collected from the astaxanthin-administration group is shown in Table 1. The measured value was expressed as mean. From each organ collected from the control administration group, neither adonixanthin nor astaxanthin were detected.

Data set [2] is described as follows: Proportion of trans carotenoid in serum and each organ of mice (Test Example 2). Format: in vivo, ICR strain mice. The following applies: mice of Test Example 1, 50 mg/kg orally once daily for 10 days. As to the method: In HPLC, the concentration of adonixanthin was measured as a concentration of each of the cis isomer and the trans isomer. In HPLC, the concentration of astaxanthin was measured as a concentration of each of the cis isomer and the trans isomer. Regarding each of adonixanthin and astaxanthin in serum and each organ of mice of Test Example 1, the proportion of the trans isomer was confirmed.

Where [3] appears, read: heart, read-out: Concentration in organ: Heart.
[4] abbreviates: kidney, read-out: Concentration in organ: Kidney.
[5] abbreviates: liver, read-out: Concentration in organ: Liver.
Where [6] appears, read: lung, read-out: Concentration in organ: Lung.
Setting [7] is: spleen, read-out: Concentration in organ: Spleen.

With `CC1=C(/C=C/C(C)=C/C=C/C(C)=C/C=C/C=C(C)/C=C/C=C(C)/C=C/C2=C(C)C(=O)C(O)CC2(C)C)C(C)(C)CC(O)C1` (stereo not drawn) [adonixanthin, 3,3′-dihydroxy-β,β-caroten-4-one], in data set [1], the “Transfer into and retention in each organ (summary of Table 1)” value is “especially likely to be transferred into each organ and retained therein”. Also, the concentration at 10 days was 141 ng/g in data set [1] (setting [3]); 774 ng/g in data set [1] (setting [4]); 1930 ng/g in data set [1] (setting [5]); 1940 ng/g in data set [1] (setting [6]); 277 ng/g in data set [1] (setting [7]). Further, the “Proportion of the trans isomer in each organ versus the cis isomer, FIG. 2” value in data set [2] is recorded as “especially higher than the proportion of the cis isomer”.
For `CC1=C(/C=C/C(C)=C/C=C/C(C)=C/C=C/C=C(C)/C=C/C=C(C)/C=C/C2=C(C)C(=O)C(O)CC2(C)C)C(C)(C)CC(O)C1=O` (stereo not drawn) [astaxanthin, 3,3′-dihydroxy-β,β-carotene-4,4′-dione], the “Transfer into and retention in each organ (summary of Table 1)” value in data set [1] was “exist in each organ at a high concentration”. Moreover, the concentration at 10 days in data set [1] (setting [3]) turned out to be 124 ng/g; in data set [1] (setting [4]), 84.6 ng/g; in data set [1] (setting [5]), 109 ng/g; in data set [1] (setting [6]), 106 ng/g; in data set [1] (setting [7]), 87.8 ng/g. Moreover, the “Proportion of the trans isomer in each organ versus the cis isomer, FIG. 2” value in data set [2] was “higher than the proportion of the cis isomer”.

Source of the values: patent US20220054432A1, “COMPOSITION FOR INCREASING RETENTION OF CAROTENOID IN BLOOD” (ENEOS Corporation, priority 2018, published 2022).
